From BindingDB's records for patent US9353116 (University of California, 2016)

Legend:
[1] = target: T1, Proto-oncogene tyrosine-protein kinase Src [251-533,T338C] (Gallus gallus, UniProt P00523, T338C); assay: In vitro Kinase Assay; conditions: pH 8
T1 construct: 251-533
Protocol: (§1) In vitro kinase assays for c-Src variants were performed in 50 mM Tris (pH 8.0), 10 mM MgCl2 and 1 mg/mL BSA. When obtaining kinetic parameters (kcat, Km) kinase and peptide substrate (IYGEFKKK) (SEQ ID NO:51) concentrations were 2 nM and 500 μM, respectively, while ATP concentrations ranged from 2000-0.655 μM. Addition of nonradioactive ATP supplemented with 32P ATP (3,000 Ci/mmol, NEN) was used to initiate kinase reactions. Time points were selected such that product formation never exceeded 10%. Reactions were quenched by spotting 3 μL quantities onto phosphocellulose sheets (P81, Whatman). Afterwards, the sheets were washed 3×5 minutes in 0.5% phosphoric acid and dried. Radioactivity was measured by phosphorimaging and recorded on a Typhoon fluorescence imager (Molecular Dynamics).

[2] = target: T2, Proto-oncogene tyrosine-protein kinase Src [251-533] (Gallus gallus, UniProt P00523); assay: In vitro Kinase Assay; conditions: pH 8
T2 construct: 251-533
Protocol: as §1

Compound | IC50 [1] [nM] | IC50 [2] [nM]
CC(=O)c1cccc(Cc2nn(C(C)C)c3ncnc(N)c23)c1 [US9353116, 14] | 4520 | > 5000
C=CS(=O)(=O)Nc1ccc(Nc2ncnc3cc(OC)c(OC)cc23)cc1 [US9353116, 20] | 560 | 2170
